Source: PubChem BioAssay AID1845202 (Molecular Pharmacology Branch, DTP, NCI, 2023)

Tested on: DMS 114 tumor spheroids, viability % test/control
Assay: Anticancer human tumor DMS 114 cell line growth inhibition;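 also: spheroids exposed to compounds for 7 days before read-out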;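 as to viability, T/C: luminescence used as a proxy for viable cells; 100% = DMSO vehicle control viability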
Conditions: spheroids with HUVEC and MSC; for IC50: curve of first compound; for viability, T/C: stronger effect = lower value
Method in brief: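 Complex tumor spheroids combined malignant cells with endothelial cells and mesenchymal stem cells. DNA-damaging drugs and DNA repair inhibitors were tested alone and in combination, at half-log dilutions down from clinical Cmax (top 10 microM if Cmax unknown), 0.25% DMSO final.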

[1] = second compound 30 pM, first compound 0.0316 µM
[2] = second compound 30 pM, first compound 0.1 µM
[3] = second compound 30 pM, first compound 0.316 µM
[4] = second compound 30 pM, first compound 1 µM
[5] = second compound 30 pM, first compound 3.16 µM
[6] = second compound 30 pM, first compound 10 µM
[7] = second compound 94.9 pM, first compound 0.0316 µM
[8] = second compound 94.9 pM, first compound 0.1 µM
[9] = second compound 94.9 pM, first compound 0.316 µM
[10] = second compound 94.9 pM, first compound 1 µM
[11] = second compound 94.9 pM, first compound 3.16 µM
[12] = second compound 94.9 pM, first compound 10 µM
[13] = second compound 0.0003 µM, first compound 0.0316 µM
[14] = second compound 0.0003 µM, first compound 0.1 µM
[15] = second compound 0.0003 µM, first compound 0.316 µM
[16] = second compound 0.0003 µM, first compound 1 µM
[17] = second compound 0.0003 µM, first compound 3.16 µM
[18] = second compound 0.0003 µM, first compound 10 µM
[19] = second compound 0.000949 µM, first compound 0.0316 µM
[20] = second compound 0.000949 µM, first compound 0.1 µM
[21] = second compound 0.000949 µM, first compound 0.316 µM
[22] = second compound 0.000949 µM, first compound 1 µM
[23] = second compound 0.000949 µM, first compound 3.16 µM
[24] = second compound 0.000949 µM, first compound 10 µM
[25] = second compound 0.003 µM, first compound 0.0316 µM
[26] = second compound 0.003 µM, first compound 0.1 µM
[27] = second compound 0.003 µM, first compound 0.316 µM
[28] = second compound 0.003 µM, first compound 1 µM
[29] = second compound 0.003 µM, first compound 3.16 µM
[30] = second compound 0.003 µM, first compound 10 µM

Compound	IC50 (second compound 30 pM) [µM]	IC50 (second compound 94.9 pM) [µM]	IC50 (second compound 0.0003 µM) [µM]	IC50 (second compound 0.000949 µM) [µM]	IC50 (second compound 0.003 µM) [µM]	viability, T/C [1] [%]	viability, T/C [2] [%]	viability, T/C [3] [%]	viability, T/C [4] [%]	viability, T/C [5] [%]	viability, T/C [6] [%]	viability, T/C [7] [%]	viability, T/C [8] [%]	viability, T/C [9] [%]	viability, T/C [10] [%]	viability, T/C [11] [%]	viability, T/C [12] [%]	viability, T/C [13] [%]	viability, T/C [14] [%]	viability, T/C [15] [%]	other results
CC(C)n1c(=O)n(C)c2cnc3cc(F)c(-c4ccc(OCCCN5CCCCC5)nc4)cc3c21 + COc1cc2c(cc1O)CCNC21CSC2c3c(OC(C)=O)c(C)c4c(c3C(COC1=O)N1C(O)C3Cc5cc(C)c(OC)c(O)c5C(C21)N3C)OCO4	4.1	1.6	< 0.0316	< 0.0316	< 0.0316	75.2	102	91.9	84.7	59	19.2	63	52.2	54.2	58.5	42.3	16.5	21.9	23.5	22.8	viability, T/C [16]: 20.6%; viability, T/C [17]: 22.3%; viability, T/C [18]: 8.07%; viability, T/C [19]: 2.63%; viability, T/C [20]: 2.62%; viability, T/C [21]: 2.73%; viability, T/C [22]: 5.38%; viability, T/C [23]: 2.74%; viability, T/C [24]: 1.03%; viability, T/C [25]: 0.2%; viability, T/C [26]: 0.22%; viability, T/C [27]: 0.17%; viability, T/C [28]: 0.14%; viability, T/C [29]: 0.12%; viability, T/C [30]: 0.23%
CC1COCCN1c1cc(-c2ccnn2C)c2ccnc(-c3ccn[nH]3)c2n1 (stereo not given) + COc1cc2c(cc1O)CCNC21CSC2c3c(OC(C)=O)c(C)c4c(c3C(COC1=O)N1C(O)C3Cc5cc(C)c(OC)c(O)c5C(C21)N3C)OCO4	< 0.0316	< 0.0316	< 0.0316	< 0.0316	< 0.0316	28.2	21.9	17.3	11.8	7.86	10.1	17.6	15.9	12.1	9.53	6.98	8.67	9.96	7.98	7.58	viability, T/C [16]: 5.84%; viability, T/C [17]: 4.87%; viability, T/C [18]: 5.28%; viability, T/C [19]: 1.57%; viability, T/C [20]: 1.39%; viability, T/C [21]: 1.26%; viability, T/C [22]: 0.89%; viability, T/C [23]: 1.12%; viability, T/C [24]: 0.45%; viability, T/C [25]: 0.2%; viability, T/C [26]: 0.22%; viability, T/C [27]: 0.15%; viability, T/C [28]: 0.15%; viability, T/C [29]: 0.12%; viability, T/C [30]: 0.22%
COc1cc(C)[nH]c(=O)c1CN1CCc2c(Cl)cc(C(OC)C3COC3)c(Cl)c2C1=O (stereo not given) + COc1cc2c(cc1O)CCNC21CSC2c3c(OC(C)=O)c(C)c4c(c3C(COC1=O)N1C(O)C3Cc5cc(C)c(OC)c(O)c5C(C21)N3C)OCO4	> 10	> 10	< 0.0316	< 0.0316	< 0.0316	118	90.5	83.5	82.1	74.8	69.6	89.1	85.9	86.7	66.2	65.1	56	38.9	43.3	41.4	viability, T/C [16]: 34.7%; viability, T/C [17]: 28.9%; viability, T/C [18]: 26.6%; viability, T/C [19]: 2.76%; viability, T/C [20]: 4.07%; viability, T/C [21]: 4.68%; viability, T/C [22]: 3.28%; viability, T/C [23]: 2.76%; viability, T/C [24]: 1.64%; viability, T/C [25]: 0.25%; viability, T/C [26]: 0.27%; viability, T/C [27]: 0.26%; viability, T/C [28]: 0.24%; viability, T/C [29]: 0.24%; viability, T/C [30]: 0.29%
COc1ccc([C@@H](O)c2cc(-c3ncnc4cc(N5CCOCC5)ccc34)c(F)cc2Cl)nn1 + COc1cc2c(cc1O)CCNC21CSC2c3c(OC(C)=O)c(C)c4c(c3C(COC1=O)N1C(O)C3Cc5cc(C)c(OC)c(O)c5C(C21)N3C)OCO4	4.79	1.68	< 0.0316	< 0.0316	< 0.0316	113	99.8	102	96.7	63.7	25.1	108	101	92.9	65.2	31.3	13.3	39.6	37.6	35.7	viability, T/C [16]: 13.4%; viability, T/C [17]: 5.07%; viability, T/C [18]: 2.36%; viability, T/C [19]: 3.78%; viability, T/C [20]: 3.32%; viability, T/C [21]: 1.74%; viability, T/C [22]: 0.47%; viability, T/C [23]: 0.07%; viability, T/C [24]: 0.17%; viability, T/C [25]: 0.25%; viability, T/C [26]: 0.28%; viability, T/C [27]: 0.28%; viability, T/C [28]: 0.31%; viability, T/C [29]: 0.29%; viability, T/C [30]: 0.36%
[2H]c1nc(C)nc([2H])c1-c1cc(NC[C@@H](C)c2cccc3c(C(=O)NC)ccnc23)ncn1 + COc1cc2c(cc1O)CCNC21CSC2c3c(OC(C)=O)c(C)c4c(c3C(COC1=O)N1C(O)C3Cc5cc(C)c(OC)c(O)c5C(C21)N3C)OCO4	> 10	> 10	< 0.0316	< 0.0316	< 0.0316	105	113	106	109	107	97.6	111	107	108	111	98.3	98	44.4	38.9	39	viability, T/C [16]: 42.1%; viability, T/C [17]: 37.4%; viability, T/C [18]: 42.4%; viability, T/C [19]: 2.57%; viability, T/C [20]: 4.99%; viability, T/C [21]: 2.84%; viability, T/C [22]: 4.1%; viability, T/C [23]: 3.19%; viability, T/C [24]: 3.15%; viability, T/C [25]: 0.21%; viability, T/C [26]: 0.22%; viability, T/C [27]: 0.17%; viability, T/C [28]: 0.21%; viability, T/C [29]: 0.16%; viability, T/C [30]: 0.28%
